Assay results taken from patent US10584159B2, “Renilla based biosensors for monitoring biomolecule localization and trafficking in cells” (The Royal Institution for the Advancement of …, priority 2014, dated 2020).

How the values were obtained:
AT1R [1] = biological target: T1, AT1R (Homo sapiens, UniProt P30556); assay: AT1R sorting to rab4 vesicles BRET (AT1R-RlucII/rGFP-rab4); type: cell-based; set-up: expressed in transfected cells; host or cells: HEK293SL (HEK293 for the screen); details: 100 nM AngII, 100 nM SI, 1 μM DVG
T1 sequence (P30556 with tags, fused parts or gaps): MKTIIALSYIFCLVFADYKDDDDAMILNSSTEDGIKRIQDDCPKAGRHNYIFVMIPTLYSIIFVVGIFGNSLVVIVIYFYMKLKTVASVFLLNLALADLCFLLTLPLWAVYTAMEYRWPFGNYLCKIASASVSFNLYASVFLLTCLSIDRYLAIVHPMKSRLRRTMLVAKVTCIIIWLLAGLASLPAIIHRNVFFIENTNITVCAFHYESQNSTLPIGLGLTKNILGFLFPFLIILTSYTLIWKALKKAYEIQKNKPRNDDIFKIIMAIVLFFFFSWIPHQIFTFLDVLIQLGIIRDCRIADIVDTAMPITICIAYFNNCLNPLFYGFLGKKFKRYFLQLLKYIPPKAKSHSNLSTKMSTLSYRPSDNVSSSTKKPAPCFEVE
Experimental: (§1) BRET measurements for FIGS. 1B to 9D, 25D to 25F. The following day of transfection, cells were detached and replated onto poly-ornithine coated white 96-well plate at a density of 25,000 cells per well. The next day, cells were washed once with pre-warmed Tyrode's buffer (140 mM NaCl, 2.7 mM KCl, 1 mM CaCl2, 12 mM NaHCO3, 5.6 mM D-glucose, 0.5 mM MgCl2, 0.37 mM NaH2PO4, 25 mM HEPES, pH 7.4), and then stimulated with either various concentrations of ligands in Tyrode's buffer for the indicated time, or single concentration of ligands for various times at 37° C. For recycling experiment, after stimulating the cells with the ligands for 30 min at 37° C., they were washed either three times with ice-cold Tyrode's buffer or once with Tyrode's buffer/three times with acid (50 mM sodium citrate, pH 4.0)/two times with Tyrode's buffer. All the washing steps were performed on ice. […] The cell-permeable substrate, coelenterazine 400a was added at a final concentration of 5 μM in Tyrode's buffer 3-4 min before BRET measurements. […] The BRET signal was determined by calculating the ratio of the light intensity emitted by the GFP10 or rGFP over the light intensity emitted by the RlucII. All the BRET measurements were performed in triplicate at 37° C.

AT1R [2] = biological target: T2, AT1R (Homo sapiens, UniProt P30556); assay: β-arrestin2 targeting to endosomes BRET (AT1R/βarr2-RlucII/rGFP-endofinFYVE); type: cell-based
T2 construct: expressed in transfected cells; host or cells: HEK293SL
T2 sequence (P30556 1-359): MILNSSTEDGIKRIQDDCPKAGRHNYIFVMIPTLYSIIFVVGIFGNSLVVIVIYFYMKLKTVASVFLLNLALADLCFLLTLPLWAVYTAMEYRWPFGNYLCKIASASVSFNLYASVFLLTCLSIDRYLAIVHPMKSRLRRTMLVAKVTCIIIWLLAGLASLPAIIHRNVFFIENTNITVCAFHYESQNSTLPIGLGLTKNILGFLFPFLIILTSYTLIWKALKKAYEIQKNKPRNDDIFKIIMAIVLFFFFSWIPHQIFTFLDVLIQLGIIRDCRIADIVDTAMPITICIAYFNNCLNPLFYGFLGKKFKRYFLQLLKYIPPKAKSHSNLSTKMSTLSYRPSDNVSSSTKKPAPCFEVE
Experimental: BRET measurements for FIGS. 1B to 9D, 25D to 25F. The following day of transfection, cells were detached and replated onto poly-ornithine coated white 96-well plate at a density of 25,000 cells per well. The next day, cells were washed once with pre-warmed Tyrode's buffer (140 mM NaCl, 2.7 mM KCl, 1 mM CaCl2, 12 mM NaHCO3, 5.6 mM D-glucose, 0.5 mM MgCl2, 0.37 mM NaH2PO4, 25 mM HEPES, pH 7.4), and then stimulated with either various concentrations of ligands in Tyrode's buffer for the indicated time, or single concentration of ligands for various times at 37° C. For recycling experiment, after stimulating the cells with the ligands for 30 min at 37° C., they were washed either three times with ice-cold Tyrode's buffer or once with Tyrode's buffer/three times with acid (50 mM sodium citrate, pH 4.0)/two times with Tyrode's buffer. All the washing steps were performed on ice. Cells were then further incubated with Tyrode's buffer at 37° C. in a water bath for 45 min. The cell-permeable substrate, coelenterazine 400a was added at a final concentration of 5 μM in Tyrode's buffer 3-4 min before BRET measurements. Measurements were performed by using Synergy2 (BioTek®) microplate reader with a filter set of 410±80 nm and 515±30 nm for detecting the RlucII Renilla luciferase (donor) and GFP10 or rGFP (acceptor) light emissions, respectively. The BRET signal was determined by calculating the ratio of the light intensity emitted by the GFP10 or rGFP over the light intensity emitted by the RlucII. All the BRET measurements were performed in triplicate at 37° C.

AT1R [3] = biological target: T1, AT1R; assay: AT1R trafficking to endosomes BRET (AT1R-RlucII/rGFP-endofinFYVE); type: cell-based; set-up: expressed in transfected cells; host or cells: HEK293SL (HEK293 for the screen)
Experimental: as §1
(§2) Data Analysis. Estimation of the t1/2 and the EC50 values for ligand-mediated endocytosis were calculated using the GraphPad® Prism curve fitting program The curves presented throughout this study, representing the best fits, and were generated using this GraphPad® Prism program as well.

AT1R [4] = biological target: T2, AT1R; assay: PKN-based RhoA activation BRET assay (PKN-crib-RlucII/rGFP-CAAX) with AT1R; type: cell-based; details: 100 nM Ubo-Qic 30 min, ligand 4 min
Experimental: as §1
PKN-based RhoA activation assay. For FIGS. 25B-D, HEK293SL cells were grown in DMEM supplemented with 6% fetal bovine serum (FBS) and 20 μg/ml gentamycin, at 37° C. Cells were seeded at a density of 7.5×10^5 cells per 100 mm dishes and were transiently transfected the next day with constructs encoding AT1R (3 μg) along with PKN-crib-RlucII (90 ng) and rGFP-CAAX (480 ng) using calcium phosphate method as described previously. After 24 h, cells were detached and seeded onto poly-ornithine-coated 96-well white plates at a density of 25 000 cells per well in media. The next day, cells were washed once with Tyrode's buffer and left in 80 μl of Tyrode's buffer at 37° C. When indicated, cells were treated with Ubo-Qic 100 nM for 30 min or C3 toxin for 3 μg/ml (in FIG. 25I), 4 hours at 37° C. Cell stimulation and BRET measurements were done at RT. BRET signals were monitored by addition of Coel-400a to a final concentration of 5 μM using a Synergy2 (BioTek®) microplate reader. […] For FIG. 25B, a transfection mix of 200 ng of TPαR, 20 ng PKN-RlucII, 600 ng CAAX-rGFP, complemented to 2 μg with ssDNA and PEI at a ratio of PEI:DNA of 3:1, is added to 3 ml of Hek293SL (350 000 cells/ml). Cells were seeded on poly-D-lysine pretreated plates. […] Cells were stimulated for 2 min with the indicated doses of U46619. […] For FIGS. 25I and J, a transfection mix of 200 ng of TPαR, 20 ng PKN-RlucII, 600 ng CAAX-rGFP, complemented to 2 μg with ssDNA and PEI at a ratio of PEI:DNA of 3:1, is added to 3 ml of Hek293SL (350,000 cells/ml). Cells were seeded on poly-D-lysine pretreated plates. 24 h post-transfection, the Rho inhibitor (CT04; Cytoskeleton, Inc) was added when indicated, overnight at final concentration 2 μg/ml. 48 h post-transfection, cells were washed and preincubated in Tyrode +1 mM CaCl2 at 37° C. for 60 min then treated, as indicated, with 100 nM of U46619 or 1 μg/ml of Rho activator II (CN03; Cytoskeleton, Inc) for 1 min at 37° C. […] BRET was measured at 37° C., using a Tristar Microplate Reader (Berthold Technologies).

[5] = test system: V2R mutants (Y128S and W164S); assay: BRET pharmacological chaperone rescue assay (rGFP-CAAX), V2R mutants; type: cell-based, human; details: 10 μM, 16 h, BRET1
Experimental: BRET assay for evaluation of PC rescue of cell surface expression and functionality (sequestration assay). In FIGS. 12A to 18E, Hek293 cells were transiently transfected using PEI as described in this section. The DNA transfected per well of a 96-well plate is as follow: in FIGS. 12A and 12B, with 2.4 ng of hMC4R-RlucII encoding construct and an increasing quantity of rGFP-CAAX (Kras) up to 9.6 ng for FIGS. 12A and for 12B, rGFP-PB up to 9.6 ng; in FIGS. 13A to 13C with 0.6, 1.2 or 2.4 ng of hMC4R-RlucII and 4.8 ng of rGFP-CAAX (Kras); in FIG. 13D with 2.4 ng of polycistronic rGFP-CAAX(Kras)/MC4R-RlucII construct; in FIG. 13E with 1.2 ng of hV2R-RlucII and 4.8 ng of rGFP-CAAX (Kras); in FIGS. 14A to 16B with 2.4 ng of hMC4R-RlucII and 7.2 ng of rGFP-CAAX (Kras); Hek293 cells stably expressing rGFP-CAAX(Kras) were transfected with 0.6, 1.2 or 2.4 ng of hMC4R-RlucII; in FIG. 17A or 0.6, 1.2 or 2.4 ng of hV2R_Y128S-RlucII; in FIG. 17B; in FIGS. 18A and 18B with 0.6, 1.2 or 2.4 ng of hERG-RlucII and 4.8 ng of rGFP-CAAX (Kras); and in FIGS. 18C-18E with 0.6 ng of hERG-RlucII and 7.2 ng of rGFP-CAAX (Kras). […] For the BRET assay, cells were washed once with PBS and left in Tyrode's buffer. […] BRET values were determined by calculating the ratio of the light emitted by the acceptor over the light emitted by the RlucII.

AT1R [6] = biological target: T1, AT1R; assay: AT1R endocytosis BRET at plasma membrane (AT1R-RlucII/lyn-rGFP); type: cell-based; set-up: signal peptide-Flag-human AT1R (spFlag-AT1R); signal peptide (N); expressed in transfected cells; host or cells: HEK293SL (HEK293 for the screen); details: 0.45 M sucrose 20 min
Experimental: as §1, §2

With `CC[C@H](C)[C@H](NC(=O)[C@@H]1CCCN1C(=O)[C@H](Cc1c[nH]cn1)NC(=O)[C@@H](NC(=O)[C@H](Cc1ccc(O)cc1)NC(=O)[C@@H](NC(=O)[C@H](CCCNC(=N)N)NC(=O)CNC)C(C)C)[C@@H](C)CC)C(=O)O` [SI, [Sar^1, IIe^8]-AngII] the “time at which BRET signal plateaued” value (AT1R [1]) was 10 min, the “β-arrestin2 trafficking to endosomes with receptors, compared to AngII” value (AT1R [2]; 40 min) was “weakly promoted” and the “time to maximal AT1R internalization into endosomes” value (AT1R [3]; 100 nM SI or 1 μM DVG) was 20 min. For the same molecule, the “less efficacious than AngII at promoting AT1R concentration in early endosomes” value (AT1R [3]; 100 nM SI or 1 μM DVG vs 100 nM AngII) was 20%, the “receptor accumulation in endosomes, compared to AngII” value (AT1R [3]; 40 min) was “promoted less receptor accumulation in endosomes” and the “impact of Gq inhibition on ligand-mediated Rho activation” value (“impact of Gq inhibition” below) (AT1R [4]) was “reduced efficacy and a rightward-shifted potency”.
In the case of `CCOc1ccc2c(c1)C1(CCC(OCCN3CCOCC3)CC1)C(=O)N2S(=O)(=O)c1ccc(C(=O)NC(C)(C)C)cc1OC` (centres unmarked) [SR121463], the “PC-mediated rescue of cell surface expression” value [5] is reported as “PC-mediated rescue”.
`CNCC(=O)N[C@@H](CCCN=C(N)N)C(=O)N[C@H](C(=O)N[C@@H](Cc1ccc(O)cc1)C(=O)N[C@H](C(=O)N[C@@H](Cc1cnc[nH]1)C(=O)N1CCC[C@H]1C(=O)N[C@@H](C)C(=O)O)C(C)C)C(C)C` [Saralasin] was tested, and the “impact of Gq inhibition” value (AT1R [4]) was “did not affect”.
For `CC[C@H](C)[C@H](NC(=O)[C@H](Cc1ccc(O)cc1)NC(=O)[C@@H](NC(=O)[C@H](CCCNC(=N)N)NC(=O)CNC)C(C)C)C(=O)N[C@@H](Cc1cnc[nH]1)C(=O)N1CCC[C@H]1C(=O)N[C@H](C)C(=O)O` [TRV, [Sar1-D-Ala8] AngII], the “impact of Gq inhibition” value (AT1R [4]) was “did not affect”.
In the case of `CO/C1=C\C(C)=C\[C@@H](C)[C@@H](O)[C@@H](C)C/C(C)=C/C=C/[C@H](OC)[C@@H]([C@@H](C)[C@@H](O)[C@H](C)[C@@]2(O)C[C@@H](O)[C@H](C)[C@@H](C(C)C)O2)OC1=O` [bafilomycin A], the “effect on agonist-mediated accumulation of AT1R in endosomes” value (AT1R [3]; AngII 40 min) is reported as “increased”.
`OC[C@H]1O[C@@](CO)(O[C@H]2O[C@H](CO)[C@@H](O)[C@H](O)[C@H]2O)[C@@H](O)[C@@H]1O` [sucrose] was tested, and the “effect on AngII-induced BRET response at the plasma membrane” value (AT1R [6]) was “efficiently blocked”, the “effect on AngII-induced BRET response in the endosomes (β-arrestin2)” value (AT1R [2]; 0.45 M sucrose 20 min) was “efficiently blocked” and the “effect on AngII-induced BRET response in the endosomes (receptor)” value (AT1R [3]; 0.45 M sucrose 20 min) was “efficiently blocked”.
For [Sar1-Val5-D-Phe8] AngII [SVdF], the “impact of Gq inhibition” value (AT1R [4]) was “reduced efficacy and a rightward-shifted potency”.
